PubChem BioAssay (NCI)
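Five concentrations, 48 hours, 96-well plates. GI50 is the concentration that inhibits growth by half. TGI marks complete inhibition of growth.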

What was measured:
Assay in all cases: DTP human tumour cell line panel, 48 h
SK-OV-3 ovarian = tested on: SK-OV-3 ovarian
RXF 393 renal = tested on: RXF 393 renal
OVCAR-8 ovarian = tested on: OVCAR-8 ovarian
K-562 leukemia = tested on: K-562 leukemia
SK-MEL-2 melanoma = tested on: SK-MEL-2 melanoma
SF-268 CNS = tested on: SF-268 CNS
RPMI-8226 leukemia = tested on: RPMI-8226 leukemia
OVCAR-4 ovarian = tested on: OVCAR-4 ovarian
M14 melanoma = tested on: M14 melanoma
NCI-H23 lung = tested on: NCI-H23 lung
SF-295 CNS = tested on: SF-295 CNS
HOP-92 NSCLC = tested on: HOP-92 NSCLC
OVCAR-3 ovarian = tested on: OVCAR-3 ovarian
MDA-MB-435 = tested on: MDA-MB-435
MDA-MB-231 breast = tested on: MDA-MB-231 breast
CAKI-1 renal = tested on: CAKI-1 renal
SN12C renal = tested on: SN12C renal
ACHN renal = tested on: ACHN renal
HL-60(TB) leukemia = tested on: HL-60(TB) leukemia
SNB-19 CNS = tested on: SNB-19 CNS
DU-145 prostate = tested on: DU-145 prostate
HCT-15 colon = tested on: HCT-15 colon
MCF7 breast = tested on: MCF7 breast
SF-539 CNS = tested on: SF-539 CNS
SK-MEL-5 melanoma = tested on: SK-MEL-5 melanoma
NCI-H226 lung = tested on: NCI-H226 lung
UACC-62 melanoma = tested on: UACC-62 melanoma
NCI-H460 lung = tested on: NCI-H460 lung
SK-MEL-28 melanoma = tested on: SK-MEL-28 melanoma
SNB-75 CNS = tested on: SNB-75 CNS
COLO 205 colon = tested on: COLO 205 colon
NCI/ADR-RES ovarian = tested on: NCI/ADR-RES ovarian
PC-3 prostate = tested on: PC-3 prostate
UO-31 renal = tested on: UO-31 renal
HCC-2998 colon = tested on: HCC-2998 colon
MOLT-4 leukemia = tested on: MOLT-4 leukemia
786-0 renal = tested on: 786-0 renal
A549 NSCLC = tested on: A549 NSCLC
HT29 colon = tested on: HT29 colon
MALME-3M melanoma = tested on: MALME-3M melanoma
U251 CNS = tested on: U251 CNS
TK-10 renal = tested on: TK-10 renal
CCRF-CEM leukemia = tested on: CCRF-CEM leukemia
IGROV1 ovarian = tested on: IGROV1 ovarian
SW-620 colon = tested on: SW-620 colon
UACC-257 melanoma = tested on: UACC-257 melanoma
HCT-116 colon = tested on: HCT-116 colon
HS 578T breast = tested on: HS 578T breast
OVCAR-5 ovarian = tested on: OVCAR-5 ovarian
KM12 colon = tested on: KM12 colon
SR leukemia = tested on: SR leukemia
HOP-62 NSCLC = tested on: HOP-62 NSCLC
BT-549 breast = tested on: BT-549 breast
A498 renal = tested on: A498 renal
T-47D breast = tested on: T-47D breast

Q: How did the GI50 (SK-OV-3 ovarian) turn out when `CN(C)c1ccc2nc3ccc(=N)cc-3sc2c1` was run?
A: 10.6 µM

Q: What about the TGI (SK-OV-3 ovarian) of the same molecule?
A: 38.7 µM

Q: What about the GI50 (RXF 393 renal) of the same molecule?
A: 10.4 µM

Q: What about the TGI (RXF 393 renal) of the same molecule?
A: 26.8 µM

Q: And the GI50 (OVCAR-8 ovarian)?
A: 2.14 µM

Q: And the TGI (OVCAR-8 ovarian)?
A: 12 µM

Q: What about the GI50 (K-562 leukemia) of the same molecule?
A: 2.61 µM

Q: And the TGI (K-562 leukemia)?
A: > 100 µM

Q: What about the GI50 (SK-MEL-2 melanoma) of the same molecule?
A: 9.24 µM

Q: And the TGI (SK-MEL-2 melanoma)?
A: 26.8 µM

Q: What about the GI50 (SF-268 CNS) of the same molecule?
A: 4.13 µM

Q: And the TGI (SF-268 CNS)?
A: 20 µM

Q: And the GI50 (RPMI-8226 leukemia)?
A: 1.21 µM

Q: What about the TGI (RPMI-8226 leukemia) of the same molecule?
A: 25.7 µM

Q: What about the GI50 (OVCAR-4 ovarian) of the same molecule?
A: 1.04 µM

Q: What about the TGI (OVCAR-4 ovarian) of the same molecule?
A: 2.47 µM

Q: What about the GI50 (M14 melanoma) of the same molecule?
A: 3.9 µM

Q: What about the TGI (M14 melanoma) of the same molecule?
A: 14.3 µM

Q: And the GI50 (NCI-H23 lung)?
A: 3.3 µM

Q: And the TGI (NCI-H23 lung)?
A: 49.5 µM

Q: And the GI50 (SF-295 CNS)?
A: 5.98 µM

Q: And the TGI (SF-295 CNS)?
A: 21.2 µM

Q: What about the GI50 (HOP-92 NSCLC) of the same molecule?
A: 3.79 µM

Q: And the TGI (HOP-92 NSCLC)?
A: 41.6 µM

Q: What about the GI50 (OVCAR-3 ovarian) of the same molecule?
A: 2.75 µM

Q: And the TGI (OVCAR-3 ovarian)?
A: 12 µM

Q: What about the GI50 (MDA-MB-435) of the same molecule?
A: 1.75 µM

Q: What about the TGI (MDA-MB-435) of the same molecule?
A: 3.63 µM

Q: And the GI50 (MDA-MB-231 breast)?
A: 1.88 µM

Q: What about the TGI (MDA-MB-231 breast) of the same molecule?
A: 11.8 µM

Q: And the GI50 (CAKI-1 renal)?
A: 4.21 µM

Q: And the TGI (CAKI-1 renal)?
A: 19.3 µM

Q: What about the GI50 (SN12C renal) of the same molecule?
A: 2.37 µM

Q: And the TGI (SN12C renal)?
A: 8.06 µM

Q: And the GI50 (ACHN renal)?
A: 5.43 µM

Q: What about the TGI (ACHN renal) of the same molecule?
A: 39.8 µM

Q: What about the GI50 (HL-60(TB) leukemia) of the same molecule?
A: 7.53 µM

Q: What about the TGI (HL-60(TB) leukemia) of the same molecule?
A: 32.9 µM

Q: And the GI50 (SNB-19 CNS)?
A: 2.86 µM

Q: And the TGI (SNB-19 CNS)?
A: 21.1 µM

Q: And the GI50 (DU-145 prostate)?
A: 14.3 µM

Q: What about the TGI (DU-145 prostate) of the same molecule?
A: 28.3 µM

Q: And the GI50 (HCT-15 colon)?
A: 3.07 µM

Q: What about the TGI (HCT-15 colon) of the same molecule?
A: 24.4 µM

Q: And the GI50 (MCF7 breast)?
A: 1.91 µM

Q: What about the TGI (MCF7 breast) of the same molecule?
A: 6.29 µM

Q: And the GI50 (SF-539 CNS)?
A: 2.2 µM

Q: What about the TGI (SF-539 CNS) of the same molecule?
A: 5.12 µM

Q: What about the GI50 (SK-MEL-5 melanoma) of the same molecule?
A: 1.51 µM

Q: What about the TGI (SK-MEL-5 melanoma) of the same molecule?
A: 5.78 µM

Q: What about the GI50 (NCI-H226 lung) of the same molecule?
A: 12.1 µM

Q: And the TGI (NCI-H226 lung)?
A: 28.8 µM

Q: And the GI50 (UACC-62 melanoma)?
A: 2.66 µM

Q: What about the TGI (UACC-62 melanoma) of the same molecule?
A: 8.19 µM

Q: And the GI50 (NCI-H460 lung)?
A: 7.06 µM

Q: What about the TGI (NCI-H460 lung) of the same molecule?
A: > 100 µM

Q: What about the GI50 (SK-MEL-28 melanoma) of the same molecule?
A: 11.9 µM

Q: And the TGI (SK-MEL-28 melanoma)?
A: 27.7 µM

Q: And the GI50 (SNB-75 CNS)?
A: 3.29 µM

Q: And the TGI (SNB-75 CNS)?
A: 15.4 µM

Q: And the GI50 (COLO 205 colon)?
A: 2.73 µM

Q: What about the TGI (COLO 205 colon) of the same molecule?
A: 10.3 µM

Q: What about the GI50 (NCI/ADR-RES ovarian) of the same molecule?
A: 3.11 µM

Q: And the TGI (NCI/ADR-RES ovarian)?
A: 48.3 µM

Q: And the GI50 (PC-3 prostate)?
A: 1.03 µM

Q: And the TGI (PC-3 prostate)?
A: 14.2 µM

Q: What about the GI50 (UO-31 renal) of the same molecule?
A: 11.6 µM

Q: And the TGI (UO-31 renal)?
A: 31.2 µM

Q: And the GI50 (HCC-2998 colon)?
A: 8.39 µM

Q: And the TGI (HCC-2998 colon)?
A: > 100 µM

Q: What about the GI50 (MOLT-4 leukemia) of the same molecule?
A: 3.47 µM

Q: What about the TGI (MOLT-4 leukemia) of the same molecule?
A: > 100 µM

Q: And the GI50 (786-0 renal)?
A: 11.8 µM

Q: What about the TGI (786-0 renal) of the same molecule?
A: 28.7 µM

Q: What about the GI50 (A549 NSCLC) of the same molecule?
A: 2.37 µM

Q: What about the TGI (A549 NSCLC) of the same molecule?
A: 13.9 µM

Q: What about the GI50 (HT29 colon) of the same molecule?
A: 21.6 µM

Q: What about the TGI (HT29 colon) of the same molecule?
A: 63.5 µM

Q: And the GI50 (MALME-3M melanoma)?
A: 2.26 µM

Q: What about the TGI (MALME-3M melanoma) of the same molecule?
A: 7.67 µM

Q: And the GI50 (U251 CNS)?
A: 2.71 µM

Q: What about the TGI (U251 CNS) of the same molecule?
A: 10.5 µM

Q: And the GI50 (TK-10 renal)?
A: 7.76 µM

Q: And the TGI (TK-10 renal)?
A: 31.4 µM

Q: What about the GI50 (CCRF-CEM leukemia) of the same molecule?
A: 2.15 µM

Q: What about the TGI (CCRF-CEM leukemia) of the same molecule?
A: > 100 µM

Q: What about the GI50 (IGROV1 ovarian) of the same molecule?
A: 8.59 µM

Q: And the TGI (IGROV1 ovarian)?
A: 35.9 µM

Q: And the GI50 (SW-620 colon)?
A: 2.83 µM

Q: What about the TGI (SW-620 colon) of the same molecule?
A: 12.9 µM

Q: And the GI50 (UACC-257 melanoma)?
A: 2.6 µM

Q: What about the TGI (UACC-257 melanoma) of the same molecule?
A: 9.71 µM

Q: What about the GI50 (HCT-116 colon) of the same molecule?
A: 2.38 µM

Q: And the TGI (HCT-116 colon)?
A: 12.5 µM

Q: And the GI50 (HS 578T breast)?
A: 11.4 µM

Q: What about the TGI (HS 578T breast) of the same molecule?
A: 39.5 µM

Q: What about the GI50 (OVCAR-5 ovarian) of the same molecule?
A: 11 µM

Q: And the TGI (OVCAR-5 ovarian)?
A: 29.4 µM

Q: And the GI50 (KM12 colon)?
A: 3.67 µM

Q: What about the TGI (KM12 colon) of the same molecule?
A: 21.7 µM

Q: And the GI50 (SR leukemia)?
A: 6.86 µM

Q: What about the TGI (SR leukemia) of the same molecule?
A: > 100 µM

Q: What about the GI50 (HOP-62 NSCLC) of the same molecule?
A: 6.87 µM

Q: What about the TGI (HOP-62 NSCLC) of the same molecule?
A: 51.5 µM

Q: And the GI50 (BT-549 breast)?
A: 7.74 µM

Q: What about the TGI (BT-549 breast) of the same molecule?
A: 69 µM

Q: And the GI50 (A498 renal)?
A: 2.02 µM

Q: And the TGI (A498 renal)?
A: 39.5 µM

Q: And the GI50 (T-47D breast)?
A: 3.63 µM

Q: And the TGI (T-47D breast)?
A: 21.3 µM
